This note sets out measurements from BindingDB's records for doi:10.1021/jm020056z (University of Newcastle, 2002).

pIC50: −log10 of the molar value.

Assay [1] addresses T1, Cyclin-A2 [171-432]/Cyclin-dependent kinase 2 (Homo sapiens, UniProt P24941).
T1 construct: 171-432
Put plainly: Kinase Inhibition Assay.

Assay [2] concerns the target Cyclin-dependent kinase 1/G2/mitotic-specific cyclin-B (Marthasterias glacialis, UniProt P15206+Q9DGD3). Put plainly: Kinase Inhibition Assay.

Chain of Cyclin-dependent kinase 1/G2/mitotic-specific cyclin-B (Q9DGD3 whole entry): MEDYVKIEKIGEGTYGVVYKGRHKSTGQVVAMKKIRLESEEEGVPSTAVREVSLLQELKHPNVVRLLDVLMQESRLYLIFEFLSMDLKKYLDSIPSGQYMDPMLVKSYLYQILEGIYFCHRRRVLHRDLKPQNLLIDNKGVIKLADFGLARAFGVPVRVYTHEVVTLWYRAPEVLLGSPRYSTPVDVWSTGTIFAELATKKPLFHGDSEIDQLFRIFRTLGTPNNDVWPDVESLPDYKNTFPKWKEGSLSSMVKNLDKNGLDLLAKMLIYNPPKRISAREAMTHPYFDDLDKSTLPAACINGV
Chain of Cyclin-dependent kinase 1/G2/mitotic-specific cyclin-B (P15206 whole entry): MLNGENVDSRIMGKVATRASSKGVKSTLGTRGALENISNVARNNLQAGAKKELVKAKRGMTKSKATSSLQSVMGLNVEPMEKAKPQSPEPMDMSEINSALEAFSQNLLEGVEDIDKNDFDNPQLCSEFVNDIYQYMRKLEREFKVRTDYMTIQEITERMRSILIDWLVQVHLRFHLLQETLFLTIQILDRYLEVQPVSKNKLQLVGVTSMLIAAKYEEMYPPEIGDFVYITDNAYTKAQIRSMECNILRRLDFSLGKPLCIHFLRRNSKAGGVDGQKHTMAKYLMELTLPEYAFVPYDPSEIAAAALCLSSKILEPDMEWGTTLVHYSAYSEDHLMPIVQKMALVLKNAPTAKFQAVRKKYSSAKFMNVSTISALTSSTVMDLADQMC

Consider `Nc1nc(OCC2CC=CCC2)c2[nH]cnc2n1` (stereo not drawn), for which the pIC50 – broadly, the IC50 on a negative log10 scale, so that one unit is a factor of ten – in assay [1] was 4.80.

For the compound `CCOC(C)(COc1nc(N)nc2[nH]cnc12)OCC`, the pIC50 was 4.44 in assay [2] and 4.48 in assay [1].
